Measured values reported in patent publication US8940766B2, “Methods for preventing and/or treating lysosomal storage disorders” (Amicus Therapeutics, Inc., priority 2009, dated 2015).

Experiments:
[1] = target: T1, recombinant human GCase (rhGCase; Cerezyme®) (Homo sapiens, UniProt P04062, R534H); assay: In vitro enzyme inhibition assay of rhGCase with 4-MU-β-D-Glc fluorogenic substrate; format: biochemical; conditions: pH 5.2; average of three independent experiments
T1 construct: purchased Genzyme Corp
T1 sequence (P04062 40-536 R534H): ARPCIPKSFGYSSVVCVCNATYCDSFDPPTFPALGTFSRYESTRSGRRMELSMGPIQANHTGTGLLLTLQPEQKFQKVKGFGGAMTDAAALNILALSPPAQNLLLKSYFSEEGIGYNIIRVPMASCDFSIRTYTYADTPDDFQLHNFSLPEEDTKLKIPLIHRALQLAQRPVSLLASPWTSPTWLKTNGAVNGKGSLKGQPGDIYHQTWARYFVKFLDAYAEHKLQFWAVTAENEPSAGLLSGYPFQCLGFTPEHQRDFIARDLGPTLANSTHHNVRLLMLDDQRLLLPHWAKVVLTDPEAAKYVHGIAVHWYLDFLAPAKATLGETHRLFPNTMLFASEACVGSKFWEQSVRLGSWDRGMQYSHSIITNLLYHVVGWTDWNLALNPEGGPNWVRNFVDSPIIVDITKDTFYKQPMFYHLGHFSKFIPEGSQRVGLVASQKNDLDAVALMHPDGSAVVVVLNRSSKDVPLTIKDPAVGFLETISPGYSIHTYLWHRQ
Protocol: The binding affinity (defined here by Ki binding constant) of GCase for small molecule pharmacological chaperones described in this document were empirically determined using enzyme inhibition assays. In brief, the enzyme inhibition assays used monitored the ability of test compound to bind and prevent the hydrolysis of a fluorogenic substrate in a concentration-dependent manner. Specifically, the enzyme activity of recombinant human GCase (rhGCase; Cerezyme®, Genzyme Corp.) was measured using the 4-methylumbelliferyl-β-D-glucopyranoside (4-MU-β-D-Glc) fluorogenic substrate in the absence or in the presence of varying amounts of each test compound. […] The enzyme inhibition assays were performed at both pH 7.0 (endoplasmic reticulum pH) and at pH 5.2 (lysosomal pH) to gain insight into the binding affinity (i.e., potency) of compounds for GCase in the endoplasmic reticulum and lysososome.
Various concentrations of test compounds were prepared in buffer “M” consisting of 50 mM sodium phosphate buffer with 0.25% sodium taurocholate at pH 7.0 and pH 5.2. Enzyme (Cerezyme®, a recombinant form of the human enzyme β-glucocerebrosidase) was also diluted in the same buffer “M” at pH 7.0 and pH 5.2. […] Fluorescence was measured on a plate reader for 1 sec/well using 355 nm excitation and 460 nm emission.

GCase = target: T2, GCase (Mus musculus, UniProt P17439); assay: GCase enhancement in tissues of orally dosed mice; format: in vivo, mice (C57BL/6); conditions: for GCase increase: nine doses over 2 weeks, 24-hour washout
T2 construct: Liver, spleen, lung, and brain tissues were removed; from tissue; host or cells: brain, spleen, liver, lung of C57BL/6 mice
T2 sequence (P17439 20-515): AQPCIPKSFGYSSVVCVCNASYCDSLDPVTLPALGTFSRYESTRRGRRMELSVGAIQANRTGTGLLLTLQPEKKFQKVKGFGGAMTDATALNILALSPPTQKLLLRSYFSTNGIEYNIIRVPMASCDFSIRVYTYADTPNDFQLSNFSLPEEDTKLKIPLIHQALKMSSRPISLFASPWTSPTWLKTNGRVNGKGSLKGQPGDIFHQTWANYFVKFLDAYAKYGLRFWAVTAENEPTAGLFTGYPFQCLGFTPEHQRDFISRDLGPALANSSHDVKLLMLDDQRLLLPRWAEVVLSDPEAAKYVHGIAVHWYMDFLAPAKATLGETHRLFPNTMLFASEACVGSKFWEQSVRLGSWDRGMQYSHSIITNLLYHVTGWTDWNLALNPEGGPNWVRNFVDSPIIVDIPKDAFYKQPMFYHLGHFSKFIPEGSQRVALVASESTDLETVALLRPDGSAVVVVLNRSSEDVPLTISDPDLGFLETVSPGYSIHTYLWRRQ
Protocol: (§1) The ability of orally administered test compounds (the hydrochloride salt form of Compound A and Compound B) to elevate GCase levels as compared to reference compound, IFG-tartrate, was assessed in mice. […] Seven animals were used per dose. The dosing solutions were prepared in water. Compounds were administered over 2 weeks as follows: week 1, Mon-Fri (On), Sat-Sun (Off); week 2, Mon-Thu (On); necropsy on Friday. Thus, a total of 9 doses (dosing solutions prepared fresh every day) were given to each mouse, with a 24-hour washout between the last dose and necropsy.
(§2) Plasma was collected by spinning blood at 2700 g for 10 minutes at 4° C. Liver, spleen, lung, and brain tissues were removed, washed in cold PBS, blotted dry, flash frozen on dry ice, and stored at −80° C. until analysis. GCase levels were measured by homogenizing approximately 50 mg tissue in 500 μL McIlvane (MI) buffer (100 mM sodium citrate, 200 mM sodium phosphate dibasic, 0.25% sodium taurocholate, and 0.1% Triton X-100, pH 5.2) at pH 5.2 for 3-5 seconds on ice with a micro homogenizer. Homogenates were then incubated at room temperature without and with 2.5 mM conduritol-B-epoxide (CBE) for 30 min. Finally, 3.7 mM 4-methylumbeliferryl-β-glucoside (4-MUG) substrate was added and incubated at 37° C. for 60 min. Reactions were stopped by addition of 0.4 M glycine, pH 10.6. Fluorescence was measured on a plate reader for 1 sec/well using 355 nm excitation and 460 nm emission. Total protein was determined in lysates using the MicroBCA kit according to the manufacturer's instructions. A 4-methylumbelliferone (4-MU) standard curve ranging from 1.0 nM to 50 μM was run in parallel for conversion of raw fluorescence data to absolute GCase activity (in the presence and absence of CBE) and expressed as nanomoles of 4-MU released per milligram of protein per hour (nmol/mg protein/hr). GCase levels and protein levels were calculated using Microsoft Excel (Redmond, Wash.) and GraphPad Prism version 4.02.

[2] = Compound concentration in brain, spleen and plasma samples of GCase enhancement study; format: in vivo, mice (C57BL/6); conditions: nine doses
Protocol: as §1, §2

[3] = mice, nine p.o. doses over 2 weeks, result in words

Question: Which results are given for O[C@@H]1[C@@H](CCl)CNC[C@H]1O [Compound B, (3R,4R,5S)-5-(chloromethyl)piperidine-3,4-diol]?
Answer: IC50 [1]: 73 ± 9 nM; GCase increase (GCase; brain, 10 mg/kg (free base equivalent) p.o.): 2.3 -fold; GCase increase (GCase; brain, 100 mg/kg (free base equivalent) p.o.): 3.5 -fold; GCase enhancement at lower doses compared to IFG-tartrate (GCase; [3]): unexpectedly greater than that observed with IFG-tartrate even when far lower doses; GCase enhancement in brain, spleen, liver and lung compared to control or IFG-tartrate (GCase; [3]): statistically significant greater GCase enhancement in brain, spleen, liver and lung as compared to mice administered control or IFG-tartrate; GCase increase (GCase; spleen, 10 mg/kg (free base equivalent) p.o.): 1.4 -fold; GCase increase (GCase; spleen, 100 mg/kg (free base equivalent) p.o.): 2.2 -fold; Concentration in GCase assays after dilution (value in parenthesis) ([2]; brain sample, 10 mg/kg p.o.): 0.9 nM; Concentration in GCase assays after dilution (value in parenthesis) ([2]; brain sample, 100 mg/kg p.o.): 7.6 nM; Concentration in GCase assays after dilution (value in parenthesis) ([2]; spleen sample, 10 mg/kg p.o.): 2.4 nM; Concentration in GCase assays after dilution (value in parenthesis) ([2]; spleen sample, 100 mg/kg p.o.): 8 nM
